Experimental data: US10000479B2, “Compounds and their methods of use” (AGIOS PHARMACEUTICALS, INC., priority 2014, dated 2018)

Target: T1, glutaminase (GAC) (Homo sapiens, UniProt O94925)
T1 sequence (O94925 55-598 isoform O94925-3 limits assumed): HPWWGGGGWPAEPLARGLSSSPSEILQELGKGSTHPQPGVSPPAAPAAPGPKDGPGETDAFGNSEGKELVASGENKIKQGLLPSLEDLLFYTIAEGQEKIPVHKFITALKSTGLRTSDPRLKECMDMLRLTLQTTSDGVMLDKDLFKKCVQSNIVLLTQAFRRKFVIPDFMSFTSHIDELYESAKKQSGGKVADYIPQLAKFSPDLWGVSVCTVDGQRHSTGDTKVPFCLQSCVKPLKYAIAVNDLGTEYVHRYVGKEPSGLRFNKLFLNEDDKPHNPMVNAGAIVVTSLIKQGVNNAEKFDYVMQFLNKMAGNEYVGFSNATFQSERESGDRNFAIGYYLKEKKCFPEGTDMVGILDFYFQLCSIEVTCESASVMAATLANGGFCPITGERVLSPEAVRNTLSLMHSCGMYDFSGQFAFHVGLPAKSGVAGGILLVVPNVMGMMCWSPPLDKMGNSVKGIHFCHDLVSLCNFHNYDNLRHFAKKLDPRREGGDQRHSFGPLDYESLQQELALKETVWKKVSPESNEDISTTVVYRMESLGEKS
Assay: glutaminase coupled endpoint assay (Example A)
Type: biochemical
Conditions: inhibition of glutaminase; assay of Example A or Example B
Procedure: In this example, the enzymatic activity of glutaminase is measured through a coupled endpoint assay. Glutamine and phosphate are supplied to GAC at a concentration equal to Km and AC50, respectively, and GAC concentration is adjusted to give a linear reaction for 60 minutes. The glutamate produced is converted to 2-OG by a kinetic excess of glutamate dehydrogenase. This second step is configured for 2× Km for NAD, since excess NAD is inhibitory. However, a kinetic excess of the third coupling enzyme, diaphorase, recycles NAD from NADH to keep the NAD concentration constant during the timecourse of the assay. Diaphorase, also supplied in kinetic excess, oxidizes NADH produced by GDH back to NAD with the concomitant reduction of rezasurin to the highly fluorescent resorufin. Resorufin in measured after the assay is stopped with SDS by Ex544/Em590. A reduction in the signal indicates inhibition of some component of the coupled enzyme system. Prospective hits are counterscreened against GDH/diaphorase alone to remove hits to the coupling enzyme system in a second assay.
2. Buffers • 2× Buffer (300 mM NaCl, 100 mM HEPES pH 8.5, 0.1% BSA, 0.5 mM EDTA, 100 mM sodium phosphate pH 8.5) • 5× Substrate Mix (1× Buffer final concentration, with 13 mM glutamine, 100 μM resazurin, 50 μg/ml diaphorase) • 1.2× Enzyme Mix (1× Buffer final concentration, with 0.875 μg/ml GAC, 1.56 mM NAD, 6.25 units/ml GDH) • Stop Mix (6% SDS in ddH20) Reaction Procedure • 1. Add 1 μl compound in 100% DMSO • 2. Add 40 μl of Enzyme Mix and incubate for 60 minute at room temperature • 3. Add 10 μl of Substrate Mix to start reaction • 4. Stop reaction with 25 μl of 6% SDS and read Ex544 Em 590
A compound described herein may be tested for its ability to inhibit glutaminase, e.g., by an assay as described in the Examples. For simplicity, the inhibition activity of these compounds is represented as an IC50 tested in an assay of Example A or Example B in Table 1. As shown, “A” refers to an inhibitor of glutaminase with an IC50<100 nM. “B” refers to inhibitor of glutaminase with an IC50 between 100 nM and 500 nM. “C” refers to inhibitor of glutaminase with an IC50 between 500 nM and 1000 nM. “D” refers to inhibitor of glutaminase with an IC50 between 1 μM and 2 μM. “E” refers to inhibitor of glutaminase with an IC50 between 2 μM and 10 μM. “N/A” refers to compounds wherein the IC50 is unavailable.

| IC50 | Structure (SMILES) |
| --- | --- |
| 2000 to 10000 nM | CC(=O)Nc1ccc([C@H]2CCC[C@H](c3ccc(NC(C)=O)nn3)C2)nn1 (racemic) [Compound 41, Trans-(rac)-N,N′-(6,6′-(cyclohexane-1,3-diyl)bis(pyridazine-6,3-diyl))diacetamide] |
| < 100 nM | O=C(Cc1ccccc1)Nc1ccc([C@H]2CCC[C@@H](c3nnc(NC(=O)Cc4ccccc4)s3)C2)nn1 [Compound 291, 2-Phenyl-N-(6-((1S,3R)-3-(5-(2-phenylacetamido)-1,3,4-thiadiazol-2-yl)cyclohexyl)pyridazin-3-yl)acetamide] |
| < 100 nM | CCCC(=O)Nc1ccc([C@@H]2CCC[C@H](c3ccc(NC(=O)CCC)nn3)C2)nn1 [Compound 37, N,N′-(6,6′-((1R,3S)-Cyclohexane-1,3-diyl)bis(pyridazine-6,3-diyl))dibutyramide] |
| < 100 nM | O=C(Cc1ccccn1)Nc1ccc([C@@H]2CCC[C@@H](c3ccc(NC(=O)Cc4ccccn4)nn3)C2)nn1 (racemic) [Compound 14, Trans-(rac)-N,N′-(6,6′-(cyclohexane-1,3-diyl)bis(pyridazine-6,3-diyl))bis(2-(pyridin-2-yl)acetamide)] |
| < 100 nM | CCC(=O)Nc1ccc([C@@H]2CCC[C@H](c3ccc(NC(=O)CC)nn3)C2)nn1 [Compound 152, N,N′-(6,6′-((1R,3S)-Cyclohexane-1,3-diyl)bis(pyridazine-6,3-diyl))dipropionamide] |
| < 100 nM | O=C(Cc1ccccn1)Nc1ccc(C2CCC(c3ccc(NC(=O)Cc4ccccn4)nn3)C2)nn1 (stereo not shown) [Compound 175, N, N′-(6,6′-(Cyclopentane-1,3-diyl)bis(pyridazine-6,3-diyl))bis(2-(pyridin-2-yl)acetamide)] |
| 100 to 500 nM | O=C(Cc1cccc(OC(F)(F)F)c1)Nc1ccc([C@@H]2CCC[C@H](c3ccc(NC(=O)Cc4cccc(OC(F)(F)F)c4)nn3)C2)nn1 [Compound 180] |
| < 100 nM | O=C(Cc1ccccn1)Nc1ccc([C@@H]2CCC[C@H](c3ccc(NC(=O)Cc4ccccn4)nn3)C2)nn1 [Compound 20, N,N′-(6,6′-((1R,3S)-Cyclohexane-1,3-diyl)bis(pyridazine-6,3-diyl))bis(2-(pyridin-2-yl)acetamide)] |
| < 100 nM | O=C(Cc1ccccc1)Nc1ccc([C@@H]2CCC[C@H](c3ccc(NC(=O)Cc4ccccc4)nn3)C2)nn1 [Compound 10, N,N′-(6,6′-((1R,3S)-cyclohexane-1,3-diyl)bis(pyridazine-6,3-diyl))bis(2-phenylacetamide)] |
| 2000 to 10000 nM | O=C(Cc1ccc(OC(F)(F)F)cc1)Nc1ccc([C@H]2CCC[C@H](c3ccc(NC(=O)Cc4ccc(OC(F)(F)F)cc4)nn3)C2)nn1 (racemic) [Compound 75, Trans-(rac)-N,N′-(6,6′-(cyclohexane-1,3-diyl)bis(pyridazine-6,3-diyl))bis(2-(4-(trifluoromethoxy)phenyl)acetamide)] |
| 100 to 500 nM | CC(C)C(=O)Nc1ccc([C@@H]2CCC[C@H](c3ccc(NC(=O)C(C)C)nn3)C2)nn1 [Compound 98, N,N′-(6,6′-((1R,3S)-Cyclohexane-1,3-diyl)bis(pyridazine-6,3-diyl))bis(2-methylpropanamide)] |
| < 100 nM | O=C(Nc1ccc([C@@H]2CCC[C@H](c3ccc(NC(=O)OCc4ccccc4)nn3)C2)nn1)OCc1ccccc1 [Compound 176, Dibenzyl (6,6′-((1R,3S)-cyclohexane-1,3-diyl)bis(pyridazine-6,3-diyl))dicarbamate] |
| < 100 nM | CC(=O)Nc1ccc([C@@H]2CCC[C@H](c3ccc(NC(C)=O)nn3)C2)nn1 [Compound 99, N,N′-(6,6′-((1R,3S)-Cyclohexane-1,3-diyl)bis(pyridazine-6,3-diyl))diacetamide] |
